From patent publication US10968214B2, “KRas G12C inhibitors” (Eli Lilly and Company, priority 2018, dated 2021)
Where “and” joins values, the source holds several entries; their conditions need not be identical. Identical values can stand only once. Like-named read-outs stand apart in the source and are kept apart here.

What was measured:
[1] = system: phosphorylation of p-ERK1/2 in H358 cells; assay: H358 Cellular Phospho-ERK AlphaLISA; assay type: cell-based, Human; details: Homo sapiens, NCI-H358, 2 h
Protocol: This assay is used to measure the ability of test compounds to inhibit the phosphorylation of p-ERK1/2, a downstream effector of KRas in Human lung cancer cells H358 (ATCC CRL-5807). Briefly, the AlphaLISA® SureFire® Ultra™ p-ERK 1/2 (Thr202/Tyr204) assay is a sandwich immunoassay for quantitative detection of phospho-ERK 1/2 (phosphorylated on Thr202/Tyr204 in ERK1, or Thr185/Tyr187 in ERK2) in cellular lysates using Alpha Technology (Perkin Elmer Cat #ALSU-PERK-A50K).
H358 cells are plated at 40K cells per well in 100 μL media (RPMI 1640, GIBCO Cat #22400-071) containing 10% FBS (GIBCO Cat #: 10082-147) in a 96 well plate (Costar #3596) and are incubated overnight in humid trays at 37° C., 5% CO2. The next morning, 10 μL of serially-diluted (3-fold) test compounds (50 μM top concentration) and 10 uL of controls (Maximum signal wells: 5% DMSO and Minimum signal wells: 2 μM of N-(3-{3-cyclopropyl-5-[(2-fluoro-4-iodophenyl)amino]-6,8-dimethyl-2,4,7-trioxo-3,4,6,7-tetrahydropyrido[4,3-D]pyrimidin-1(2H)-yl}phenyl)acetamide (trametinib, as a positive control) are added to the cell plate and incubated for 2 hr in humid trays at 37° C./5% CO2. Lysis Buffer is prepared at RT containing a protease and phosphatase inhibitor cocktail. Culture medium is removed by inverting and shaking the cell plate in the sink and then blotting onto a paper towel. Lysis buffer is added to the cell plate (50 μL per well) and the plate is incubated at RT for 10 min on a shaker. For p-ERK detection, acceptor beads are diluted into a suspension mixture with buffer. Using a Starlett liquid handler, 5 μL of acceptor beads and 2 μL of cell lysate are transferred as a single-step in-tip dilution to a 384 well assay plate. The assay plate is sealed with foil and is incubated at RT for 2 hrs. Donor beads are diluted into a suspension mixture with buffer. Using the Starlet, 5 μL of donor beads are added to the assay plate that is then sealed, wrapped with foil. The plate is incubated at RT for 2 hrs in the dark. The assay plate is then read on an EnVision™ Plate Reader (Perkin Elmer) using a luminescence program.
The signal is converted to percent inhibition using the following equation: % Inhibition=100−[(Test Compound Signal−Median Minimum Signal)/(Median Maximum Signal−Median Min Signal)×100]. The Maximum signal is a control well without inhibitor.

[2] = system: HCC44 xenograft; assay: Anti-tumor growth activity, HCC44 lung xenograft; assay type: in vivo; details: 28 Day, negative = regression
[3] = system: SW837 xenograft; assay: Anti-tumor growth activity, SW837 colorectal xenograft; assay type: in vivo; details: for Tumor Growth Inhibition (%) or Regression (−%): 28 Day, negative = regression
[4] = system: EL3187; assay: CellTiterGlo Cell Proliferation Assay, EL3187; assay type: cell-based; details: KRas G12C, Lung, 96 hr
Protocol: (§1) A panel of tumor cell lines harboring KRas G12C or other KRas mutations are collected (Table 6). All cell lines are from ATCC or other sources indicated.
(§2) Typically cells are cultured in RPMI1640 or Dulbecco's modified Eagle's medium (DMEM, GIBCO) supplemented with 10% FBS (GIBCO, Invitrogen). For 2D culture cells (4×10^3/well) maintained in growth medium described above, are plated onto 96 well tissue culture plates Corning® Cat. 3603) a day before the treatment. For 3D culture 8000 cells/well are seeded onto 96 well ultra-low attachment tissue culture plates (Corning, #3474). The cells are treated compound for 96 hr, and then are analyzed for viability using the CellTiterGlo® Luminescent Cell Viability Assay® (Promega #G7572 for 2D and Promega #G9683 for 3D cultures) according to manufacturer's instructions and an EnVision™ plate reader. Nonlinear regression and sigmoidal dose-response curves are used to calculate the half maximal inhibitory concentration (IC50) with GraphPad Prism 4® software.

[5] = system: EL3187 (PDX); assay: Anti-tumor growth activity, EL3187 lung PDX; assay type: in vivo; details: for Tumor Growth Inhibition (%) or Regression (−%): EL3187 (PDX) Lung, 28 Day, negative = regression
[6] = system: H358; assay: CellTiterGlo Cell Proliferation Assay, H358; assay type: cell-based; details: Homo sapiens, NCI-H358, KRas G12C, Lung, 96 hr
Protocol: as §1, §2

[7] = system: SW837; assay: CellTiterGlo Cell Proliferation Assay, SW837; assay type: cell-based; details: Homo sapiens, KRas G12C, Rectum, 96 hr
Protocol: as §1, §2

[8] = system: H1975; assay: CellTiterGlo Cell Proliferation Assay, H1975; assay type: cell-based; details: Homo sapiens, NCI-H1975, KRas wild type, lung, 96 hr
Protocol: as §1, §2

[9] = system: H460; assay: CellTiterGlo Cell Proliferation Assay, H460; assay type: cell-based; details: Homo sapiens, NCI-H460, KRas Q61H, lung, 96 hr
Protocol: as §1, §2

[10] = molecular target: KRas G12C (Homo sapiens, UniProt P01116, G12C); assay: KRas G12C Probe Occupancy TR-FRET Assay; assay type: binding; details: read-out: IC50
Protocol: Inhibitors are tested in dose response format from 10 mM stocks in 100% DMSO. The Labycyte Echo® 555 is used to dilute and transfer 100 nL per well containing a 10 point, 2.8-fold serial dilution to an assay plate. […] The signal ratio (em at 665/em at 615) is converted to percent inhibition using the following equation: % Inhibition=100−[(Test Compound Signal−Median Minimum Signal)/(Median Maximum Signal−Median Minimum Signal)×100].

[11] = system: Miapaca-2; assay: CellTiterGlo Cell Proliferation Assay, Miapaca-2; assay type: cell-based; details: Homo sapiens, MIA PaCa-2, KRas G12C, Pancreas, 96 hr
Protocol: as §1, §2

[12] = read-out: IC50 (μM) in 2 D cell proliferation
[13] = read-out: IC50 (μM) in 3 D spheroid cell proliferation

Sequence of KRas G12C (P01116 1-188 isoform P01116-2 G12C): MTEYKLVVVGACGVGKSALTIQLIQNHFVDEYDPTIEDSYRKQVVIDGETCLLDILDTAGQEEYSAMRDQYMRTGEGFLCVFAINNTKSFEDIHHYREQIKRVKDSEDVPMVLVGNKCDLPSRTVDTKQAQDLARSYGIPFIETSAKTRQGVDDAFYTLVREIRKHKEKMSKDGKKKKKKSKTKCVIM

IC50 ([1]; read-out: pERK): 5.66 nM
IC50 ([1]; read-out: relative IC50): 5.7 nM
IC50 [6, 12]: 0.041 µM
IC50 [6, 13]: 0.026 µM
IC50 [7, 12]: 0.169 µM
IC50 [7, 13]: 0.126 µM
IC50 [8, 12]: 18.7 µM
IC50 [8, 13]: 6.2 µM
IC50 [9, 12]: 11.6 µM
IC50 [9, 13]: 6.07 µM
IC50 ([10]; 5 min incubation): 25 nM
IC50 ([10]; 60 min incubation): 24 nM
IC50 [11, 12]: 0.014 µM
IC50 [11, 13]: 0.086 µM
Structure (SMILES): C=CC(=O)N1CCN(c2ncnc3c(F)c(-c4ccc(F)c5sc(N)nc45)c(Cl)cc23)CC1 [Example 1, 1-{4-[7-(2-Amino-7-fluoro-1,3-benzothiazol-4-yl)-6-chloro-8-fluoroquinazolin-4-yl]piperazin-1-yl}prop-2-en-1-one]
Tumor Growth Inhibition (%) or Regression (−%) ([2]; 15 mg/kg BID): 93.4%
Tumor Growth Inhibition (%) or Regression (−%) ([2]; 30 mg/kg BID): −16.5%
Tumor Growth Inhibition (%) or Regression (−%) ([2]; 30 mg/kg QD): 85.4%
Tumor Growth Inhibition (%) or Regression (−%) ([3]; 15 mg/kg BID): −17%
Tumor Growth Inhibition (%) or Regression (−%) ([3]; 30 mg/kg BID): −46.1%
Tumor Growth Inhibition (%) or Regression (−%) ([3]; 30 mg/kg QD): −10.8%
In Vivo Anti-Tumor Activities ([3]; Example 1 30 mg/kg QDx28): −51.8
IC50 [4, 12]: 0.003 µM
IC50 [4, 13]: 0.013 µM
Tumor Growth Inhibition (%) or Regression (−%) ([5]; 5 mg/kg BID): −65%
Tumor Growth Inhibition (%) or Regression (−%) ([5]; 5 mg/kg QD): 94%
Tumor Growth Inhibition (%) or Regression (−%) ([5]; 15 mg/kg BID): −80%
Tumor Growth Inhibition (%) or Regression (−%) ([5]; 15 mg/kg QD): −75%
Tumor Growth Inhibition (%) or Regression (−%) ([5]; 30 mg/kg BID, 30 mg/kg): −100% and −92.5%
Tumor Growth Inhibition (%) or Regression (−%) ([5]; 100 mg/kg BID): −100%
Tumor Growth Inhibition (%) or Regression (−%) ([5]; 100 mg/kg QD): −100%
In Vivo Anti-Tumor Activities ([5]; EL3187 Lung PDX, Example 1 5 mg/kg QDx28): 94.8
